Results from patent publication US20250215039A1, “NUCLEOSIDES FOR TREATING CANCER” (PRIMEFOUR THERAPEUTICS, INC., priority 2022, published 2025).
Read-outs that look alike come from different tables or passages of the source.

What was measured:
cancer cell lines = test: Cancer cell proliferation activity (CellTiterGlo, 72 h); type: cell-based; conditions: for IC50: 72 h, read-out: IC50
In short: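 Cells seeded overnight at 37 °C, then dosed with compound at 0.1% final DMSO and incubated 72 h at 37 °C (5% or 10% CO2 by medium).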

[1] = biological target: human cytidine deaminase (CDA) (Homo sapiens, UniProt P32320); test: Metabolism by human cytidine deaminase (CDA), substrate absorbance at 290 nm; conditions: 12 nM CDA, 50 and 200 uM substrate, 37° C., pH 7.5; figure legends FIG. 4-9
Chain of human cytidine deaminase (CDA) (P32320 whole entry): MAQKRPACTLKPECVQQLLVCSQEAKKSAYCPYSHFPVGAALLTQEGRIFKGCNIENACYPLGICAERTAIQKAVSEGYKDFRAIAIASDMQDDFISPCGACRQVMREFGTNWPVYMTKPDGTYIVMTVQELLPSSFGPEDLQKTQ

IC50 (cancer cell lines; 5637 cell line (bladder)): 30 nM
IC50 (cancer cell lines; CLS439 cell line (bladder)): 17600 nM
IC50 (cancer cell lines; HS729 cell line (muscle)): 1410 nM
IC50 (cancer cell lines; JAR cell line (placenta)): > 50000 nM
IC50 (cancer cell lines; U20S cell line, bone): > 50000 nM
IC50 (cancer cell lines; Homo sapiens, 22Rv1, 72 h, 22RV1 cell line (prostate)): 400 nM
IC50 (cancer cell lines; Homo sapiens, 786-0, 72 h, 786O cell line (kidney)): > 50000 nM
IC50 (cancer cell lines; Homo sapiens, A204, 72 h, A204 cell line (muscle)): 140 nM
IC50 (cancer cell lines; Homo sapiens, A549, 72 h, A549 cell line, lung): 240 nM
IC50 (cancer cell lines; Homo sapiens, A673, 72 h, A673 cell line (bone)): 510 nM
IC50 (cancer cell lines; Homo sapiens, A2780, 72 h, A2780 cell line (ovary)): 680 nM
IC50 (cancer cell lines; Homo sapiens, A-375, 72 h, A375 cell line (skin)): 730 nM
IC50 (cancer cell lines; Homo sapiens, A-431, 72 h, A431 cell line (skin)): 40 nM
IC50 (cancer cell lines; Homo sapiens, ACHN, ACHN cell line (kidney)): 50 nM
IC50 (cancer cell lines; Homo sapiens, ASPC1, 72 h, ASPC1 cell line (pancreas)): 10 nM
IC50 (cancer cell lines; Homo sapiens, BT-20, 72 h, BT20 cell line (breast)): > 50000 nM
IC50 (cancer cell lines; Homo sapiens, BXPC-3, 72 h, BXPC3 cell line (pancreas)): 10 nM
IC50 (cancer cell lines; Homo sapiens, C-33-A, C33A cell line, endometrial): 130 nM
IC50 (cancer cell lines; Homo sapiens, CAKI-1, 72 h, CAKI1 cell line (kidney)): 400 nM
IC50 (cancer cell lines; Homo sapiens, COLO 205, 72 h, COLO205 cell line (colon)): 60 nM
IC50 (cancer cell lines; Homo sapiens, COLO-678, 72 h, COLO678 cell line (colon)): > 50000 nM
IC50 (cancer cell lines; Homo sapiens, Ca-Ski, CASKI cell line, endometrial): 6170 nM
IC50 (cancer cell lines; Homo sapiens, Caco-2, 72 h, CACO2 cell line (colon)): > 50000 nM
IC50 (cancer cell lines; Homo sapiens, Calu-6, 72 h, CALU6 cell line (lung)): 250 nM
IC50 (cancer cell lines; Homo sapiens, DLD-1, 72 h, DLD1 cell line (colon)): 3660 nM
IC50 (cancer cell lines; Homo sapiens, DU-145, 72 h, DU145 cell line (prostate)): 1340 nM
IC50 (cancer cell lines; Homo sapiens, EFO-21, 72 h, EFO21 cell line (ovary)): 3620 nM
IC50 (cancer cell lines; Homo sapiens, EJ-28, 72 h, EJ28 cell line (bladder)): 190 nM
IC50 (cancer cell lines; Homo sapiens, Granta-519, 72 h, GRANTA-519 cell line (hematological)): 30 nM
IC50 (cancer cell lines; Homo sapiens, HCT-15, 72 h, HCT15 cell line (colon)): 1580 nM
IC50 (cancer cell lines; Homo sapiens, HCT-116, 72 h, HCT116 cell line (colon)): 1180 nM
IC50 (cancer cell lines; Homo sapiens, HEK293, 72 h, HEK293 cell line (kidney)): > 50000 nM
IC50 (cancer cell lines; Homo sapiens, HL-60, 72 h, HL-60 cell line (hematological)): 810 nM
IC50 (cancer cell lines; Homo sapiens, HT-29, 72 h, HT29 cell line (colon)): 160 nM
IC50 (cancer cell lines; Homo sapiens, HT-1080, 72 h, HT1080 cell line (connective tissue)): 190 nM
IC50 (cancer cell lines; Homo sapiens, HeLa, HELA cell line, endometrial): > 50000 nM
IC50 (cancer cell lines; Homo sapiens, HepG2, 72 h, HEPG2 cell line (liver)): 540 nM
IC50 (cancer cell lines; Homo sapiens, Hs-578T, HS578T cell line, breast): > 50000 nM
IC50 (cancer cell lines; Homo sapiens, IGROV-1, 72 h, IGROV1 cell line (ovary)): 1650 nM
IC50 (cancer cell lines; Homo sapiens, IMR-90, 72 h, IMR90 cell line, lung): > 50000 nM
IC50 (cancer cell lines; Homo sapiens, J82, 72 h, J82 cell line (bladder)): 1080 nM
IC50 (cancer cell lines; Homo sapiens, JEG-3, 72 h, JEG3 cell line (placenta)): 100 nM
IC50 (cancer cell lines; Homo sapiens, JIMT-1, 72 h, JIMT1 cell line (breast)): 890 nM
IC50 (cancer cell lines; Homo sapiens, K562, 72 h, K-562 cell line (hematological)): > 50000 nM
IC50 (cancer cell lines; Homo sapiens, Kasumi 1, 72 h, KASUMI-1 cell line (hematological)): 400 nM
IC50 (cancer cell lines; Homo sapiens, L-363, 72 h, L-363 cell line (hematological)): > 50000 nM
IC50 (cancer cell lines; Homo sapiens, LoVo, LOVO cell line (colon)): 30 nM
IC50 (cancer cell lines; Homo sapiens, MCF7, 72 h, MCF7 cell line (breast)): 1760 nM
IC50 (cancer cell lines; Homo sapiens, MDA-MB-231, 72 h, MDAMB231 cell line (breast)): 370 nM
IC50 (cancer cell lines; Homo sapiens, MDA-MB-435, 72 h, MDAMB435 cell line (skin)): 2520 nM
IC50 (cancer cell lines; Homo sapiens, MDA-MB-436, 72 h, MDAMB436 cell line (breast)): 140 nM
IC50 (cancer cell lines; Homo sapiens, MDA-MB-468, 72 h, MDAMB468 cell line (breast)): 770 nM
IC50 (cancer cell lines; Homo sapiens, MG-63, 72 h, MG63 cell line (bone)): 680 nM
IC50 (cancer cell lines; Homo sapiens, MHH-ES-1, 72 h, MHHES1 cell line (bone)): 1930 nM
IC50 (cancer cell lines; Homo sapiens, MIA PaCa-2, 72 h, MIAPACA2 cell line (pancreas)): > 50000 nM
IC50 (cancer cell lines; Homo sapiens, MINO, MINO cell line (hematological)): 10 nM
IC50 (cancer cell lines; Homo sapiens, MV4-11, 72 h, MV4-11 cell line (hematological)): 140 nM
IC50 (cancer cell lines; Homo sapiens, NCI-H23, 72 h, NCI-H23 cell line (lung)): 980 nM
IC50 (cancer cell lines; Homo sapiens, NCI-H82, 72 h, NCIH82 cell line (lung)): 390 nM
IC50 (cancer cell lines; Homo sapiens, NCI-H292, 72 h, NCIH292 cell line (lung)): > 50000 nM
IC50 (cancer cell lines; Homo sapiens, NCI-H460, 72 h, NCIH460 cell line (lung)): 200 nM
IC50 (cancer cell lines; Homo sapiens, OVCAR-3, 72 h, OVCAR3 cell line (ovary)): 3090 nM
IC50 (cancer cell lines; Homo sapiens, OVCAR-4, 72 h, OVCAR4 cell line (ovary)): > 50000 nM
IC50 (cancer cell lines; Homo sapiens, PANC-1, 72 h, PANC1 cell line (pancreas)): 1620 nM
IC50 (cancer cell lines; Homo sapiens, PC-3, 72 h, PC3 cell line (prostate)): 2600 nM
IC50 (cancer cell lines; Homo sapiens, PLC-PRF-5, 72 h, PLCPRF5 cell line (liver)): > 50000 nM
IC50 (cancer cell lines; Homo sapiens, Panc1005, 72 h, PANC1005 cell line (pancreas)): > 50000 nM
IC50 (cancer cell lines; Homo sapiens, RD, RD cell line (muscle)): 420 nM
IC50 (cancer cell lines; Homo sapiens, Ramos, RAMOS cell line (hematological)): 160 nM
IC50 (cancer cell lines; Homo sapiens, SAOS-2, 72 h, SAOS2 cell line (bone)): 90 nM
IC50 (cancer cell lines; Homo sapiens, SF-268, 72 h, SF268 cell line (brain)): 220 nM
IC50 (cancer cell lines; Homo sapiens, SF-295, 72 h, SF295 cell line (brain)): 3900 nM
IC50 (cancer cell lines; Homo sapiens, SK-BR-3, 72 h, SKBR3 cell line (breast)): 30 nM
IC50 (cancer cell lines; Homo sapiens, SK-HEP1, 72 h, SKHEP1 cell line (liver)): 770 nM
IC50 (cancer cell lines; Homo sapiens, SK-LMS-1, 72 h, SKLMS1 cell line (uterus)): 1150 nM
IC50 (cancer cell lines; Homo sapiens, SK-MEL-5, 72 h, SKMEL5 cell line, skin): > 50000 nM
IC50 (cancer cell lines; Homo sapiens, SK-MEL-28, 72 h, SKMEL28 cell line (skin)): 2900 nM
IC50 (cancer cell lines; Homo sapiens, SK-N-AS, SKNAS cell line (brain)): > 50000 nM
IC50 (cancer cell lines; Homo sapiens, SK-N-SH, SKNSH cell line (brain)): > 50000 nM
IC50 (cancer cell lines; Homo sapiens, SK-OV-3, 72 h, SKOV3 cell line (ovary)): 410 nM
IC50 (cancer cell lines; Homo sapiens, SNB-75, 72 h, SNB75 cell line (brain)): 2820 nM
IC50 (cancer cell lines; Homo sapiens, SU-DHL10, 72 h, SU-DHL-10 cell line (hematological)): 330 nM
IC50 (cancer cell lines; Homo sapiens, SU-DHL-6, 72 h, SU-DHL-6 cell line (hematological)): 450 nM
IC50 (cancer cell lines; Homo sapiens, SW-620, 72 h, SW620 cell line (colon)): 240 nM
IC50 (cancer cell lines; Homo sapiens, T-24, 72 h, T24 cell line (bladder)): 400 nM
IC50 (cancer cell lines; Homo sapiens, TE-671, 72 h, TE671 cell line (muscle)): 170 nM
IC50 (cancer cell lines; Homo sapiens, THP-1, 72 h, THP-1 cell line (hematological)): 2140 nM
IC50 (cancer cell lines; Homo sapiens, U-87 MG, U87MG cell line (brain)): 1870 nM
IC50 (cancer cell lines; Homo sapiens, UMUC3, 72 h, UMUC3 cell line (bladder)): 1340 nM
IC50 (cancer cell lines; Homo sapiens, UO-31, 72 h, UO31 cell line (kidney)): > 50000 nM
IC50 (cancer cell lines; Homo sapiens, WSU-NHL, WSU-NHL cell line (hematological)): 380 nM
IC50 (cancer cell lines; MT-3, 72 h, MT3 cell line (breast)): 60 nM
IC50 (cancer cell lines; NCI-H358M, NCIH358M cell line (lung)): 70 nM
IC50 (cancer cell lines; PBMC, PBMC (hematological)): 700 nM
IC50 (cancer cell lines; RD-ES, RDES cell line (bone)): 6010 nM
Compound: C[C@]1(CO)O[C@@H](n2cc(F)c(N)nc2=O)C[C@@H]1O [Cpd. No. 4, 4-amino-5-fluoro-1-((2R,4S,5R)-4-hydroxy-5-(hydroxymethyl)-5-methyltetrahydrofuran-2-yl)pyrimidin-2(1H)-one]
cytotoxicity against a panel of cell lines (waterfall plot) (cancer cell lines; panel of cancer and non-cancer cell lines, figure legends FIG. 1-3): selectively cytotoxic in cancer cell lines with high DDR activity
metabolism (deamination) by human CDA (line graph) [1]: more stable than cytidine and gemcitabine
